We go through two molecules from ChEMBL document CHEMBL5625247, “Tetrahydro-β-carboline derivatives as potent histone deacetylase 6 inhibitors with broad-spectrum antiproliferative activity” (Eur J Med Chem, 2023).

The structures appear in SMILES notation. Activity calls are given as the source filed them. No cut-off for these calls is given here.

Data set [1] in a line: Oral bioavailability in Sprague-Dawley rat at 3 mg/kg by LC-MS/MS analysis. Type of data set: ADME, organism-based. The note with it: in vivo.
A further data set deals with MCF7. The data set is described as follows: Antiproliferative activity against human MCF7 cells assessed as cell growth inhibition incubated for 72 hrs by alamar blue dye based assay. Type of data set: functional.
Another data set concerns the target Histone deacetylase 3 (Homo sapiens, UniProt O15379). The experiment in a line: Inhibition of HDAC3 (unknown origin) expressed in baculovirus infected in Sf9 cells using RHKKAc as substrate preincubated for 5 to 10 mins followed by substrate addition measured after 2 hrs by fluorescence based assay.
In a further data set the test system is IGROV-1. The data set is described as follows: Antiproliferative activity against human IGROV-1 cells assessed as cell growth inhibition incubated for 72 hrs by alamar blue dye based assay. It counts as functional. (In general: Alamar Blue is a resazurin reagent that responds to reducing activity.)
Data set [2] deals with T1, Protein deacetylase HDAC6 (Homo sapiens) (UniProt Q9UBN7).
T1 sequence (whole entry): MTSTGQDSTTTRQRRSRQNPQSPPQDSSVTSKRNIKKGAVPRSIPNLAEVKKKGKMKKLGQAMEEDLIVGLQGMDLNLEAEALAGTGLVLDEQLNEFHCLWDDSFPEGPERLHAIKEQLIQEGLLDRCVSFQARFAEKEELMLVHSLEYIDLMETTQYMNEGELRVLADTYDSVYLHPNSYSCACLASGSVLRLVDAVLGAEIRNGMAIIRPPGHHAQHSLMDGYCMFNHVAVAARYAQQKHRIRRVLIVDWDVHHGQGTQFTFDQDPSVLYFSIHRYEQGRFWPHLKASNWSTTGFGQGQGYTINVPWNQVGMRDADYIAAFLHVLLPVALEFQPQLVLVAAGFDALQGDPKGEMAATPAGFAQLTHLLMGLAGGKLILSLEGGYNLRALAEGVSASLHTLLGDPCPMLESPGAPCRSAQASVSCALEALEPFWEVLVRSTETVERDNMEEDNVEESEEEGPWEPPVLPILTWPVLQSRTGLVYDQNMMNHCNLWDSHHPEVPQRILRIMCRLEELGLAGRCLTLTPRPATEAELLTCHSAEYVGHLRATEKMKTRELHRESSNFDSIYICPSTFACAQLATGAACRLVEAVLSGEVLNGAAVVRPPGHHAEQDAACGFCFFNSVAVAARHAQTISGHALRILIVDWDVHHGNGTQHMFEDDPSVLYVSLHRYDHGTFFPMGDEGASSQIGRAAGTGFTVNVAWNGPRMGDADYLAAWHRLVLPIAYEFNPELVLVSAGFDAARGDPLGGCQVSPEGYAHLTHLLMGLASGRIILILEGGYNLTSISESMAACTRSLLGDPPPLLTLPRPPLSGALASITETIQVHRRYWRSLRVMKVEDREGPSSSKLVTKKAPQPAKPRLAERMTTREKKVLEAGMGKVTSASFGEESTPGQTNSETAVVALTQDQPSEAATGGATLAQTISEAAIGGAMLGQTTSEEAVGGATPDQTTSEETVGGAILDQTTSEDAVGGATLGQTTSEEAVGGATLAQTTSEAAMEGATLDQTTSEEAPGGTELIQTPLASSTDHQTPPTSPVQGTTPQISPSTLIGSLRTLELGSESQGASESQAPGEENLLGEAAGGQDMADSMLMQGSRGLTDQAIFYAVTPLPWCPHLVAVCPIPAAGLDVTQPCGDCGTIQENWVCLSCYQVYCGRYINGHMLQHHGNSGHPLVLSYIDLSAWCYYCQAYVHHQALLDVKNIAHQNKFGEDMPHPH
The experiment in a line: Inhibition of HDAC6 in human RPMI-8226 cells assessed as increase in histone H3 acetylation at 1 to 10 uM incubated for 24 hrs by Western blot analysis. The conditions noted are these: dose 1-10 µM. It counts as cell-based. (In western blotting, separated proteins are transferred to a membrane and probed.)

For a further data set, the system named is HL-60(TB). The data set is described as follows: Antiproliferative activity against human HL-60(TB) cells assessed as cell growth inhibition incubated for 72 hrs by alamar blue dye based assay. Type of data set: functional.
The test system of a further data set is HOP-92. The data set is described as follows: Antiproliferative activity against human HOP-92 cells assessed as cell growth inhibition incubated for 72 hrs by alamar blue dye based assay. It counts as functional.
A further data set concerns BT-549. The experiment in a line: Antiproliferative activity against human BT-549 cells assessed as cell growth inhibition incubated for 72 hrs by alamar blue dye based assay. It counts as functional.
Data set [3] in a line: Clearance in Sprague-Dawley rat at 0.2 mg/kg, iv by LC-MS/MS analysis. The conditions noted are these: in vivo. It counts as ADME, organism-based.
A further data set has as its system UO-31. The experiment in a line: Antiproliferative activity against human UO-31 cells assessed as cell growth inhibition incubated for 72 hrs by alamar blue dye based assay. It counts as functional.
A short description of data set [4]: Tmax in Sprague-Dawley rat at 3 mg/kg, po by LC-MS/MS analysis. The conditions noted are these: in vivo. Type of data set: ADME, organism-based.
A further data set relates to LOX IMVI. The experiment in a line: Antiproliferative activity against human LOX IMVI cells assessed as cell growth inhibition incubated for 72 hrs by alamar blue dye based assay. It counts as functional.
In data set [5] the target is T1, Protein deacetylase HDAC6 (Homo sapiens). The experiment in a line: Inhibition of HDAC6 in human RPMI-8226 cells assessed as increase in alpha-tubulin acetylation at 1 to 10 uM incubated for 24 hrs by Western blot analysis. Type of data set: cell-based. The conditions noted are these: dose 1-10 µM.
A further data set concerns UACC-62. The experiment in a line: Antiproliferative activity against human UACC-62 cells assessed as cell growth inhibition incubated for 72 hrs by alamar blue dye based assay. It counts as functional.
The target of a further data set is Histone deacetylase 9 (Homo sapiens, UniProt Q9UKV0). The experiment in a line: Inhibition of HDAC9 (unknown origin) expressed in baculovirus infected in Sf9 cells using RHKKAc as substrate preincubated for 5 to 10 mins followed by substrate addition measured after 2 hrs by fluorescence based assay.
The next data set has as its system HCT-15. The experiment in a line: Antiproliferative activity against human HCT-15 cells assessed as cell growth inhibition incubated for 72 hrs by alamar blue dye based assay. It counts as functional.
A further data set has as its system SW-620. The experiment in a line: Antiproliferative activity against human SW620 cells assessed as cell growth inhibition incubated for 72 hrs by alamar blue dye based assay. It counts as functional.
For a further data set, the system named is COLO 205. The data set is described as follows: Antiproliferative activity against human COLO 205 cells assessed as cell growth inhibition incubated for 72 hrs by alamar blue dye based assay. Type of data set: functional.
Another data set relates to NCI-H23. The experiment in a line: Antiproliferative activity against human NCI-H23 cells assessed as cell growth inhibition incubated for 72 hrs by alamar blue dye based assay. It counts as functional.
The nature of data set [6]: Cmax in Sprague-Dawley rat at 0.2 mg/kg, iv by LC-MS/MS analysis. It counts as ADME, organism-based. The conditions noted are these: in vivo.
The target in data set [7] is Class 1 histone deacetylase (Homo sapiens) (UniProt Q13547+O15379+Q92769+Q9BY41). The experiment in a line: Inhibition of class 1 HDAC in human RPMI-8226 cells assessed as increase in histone H3 acetylation at 1 to 10 uM incubated for 24 hrs by Western blot analysis. The note with it: dose 1-10 µM. Type of data set: cell-based.
For the next data set, the system named is CCRF-CEM. The experiment in a line: Antiproliferative activity against human CCRF-CEM cells assessed as cell growth inhibition incubated for 72 hrs by alamar blue dye based assay. Type of data set: functional.
The test system of another data set is DU-145. The data set is described as follows: Antiproliferative activity against human DU-145 cells assessed as cell growth inhibition incubated for 72 hrs by alamar blue dye based assay. Type of data set: functional.
The subject of another data set is NCI-H226. The experiment in a line: Antiproliferative activity against human NCI-H226 cells assessed as cell growth inhibition incubated for 72 hrs by alamar blue dye based assay. It counts as functional.
Another data set has as its target Histone deacetylase 1 (Homo sapiens, UniProt Q13547). The data set is described as follows: Inhibition of HDAC1 (unknown origin) expressed in baculovirus infected in Sf9 cells using RHKKAc as substrate at 500 nM preincubated for 5 to 10 mins followed by substrate addition measured after 2 hrs by fluorescence based assay relative to control. The conditions noted are these: time 5-130 min.

Histone deacetylase 9, sequence (Q9UKV0 whole entry): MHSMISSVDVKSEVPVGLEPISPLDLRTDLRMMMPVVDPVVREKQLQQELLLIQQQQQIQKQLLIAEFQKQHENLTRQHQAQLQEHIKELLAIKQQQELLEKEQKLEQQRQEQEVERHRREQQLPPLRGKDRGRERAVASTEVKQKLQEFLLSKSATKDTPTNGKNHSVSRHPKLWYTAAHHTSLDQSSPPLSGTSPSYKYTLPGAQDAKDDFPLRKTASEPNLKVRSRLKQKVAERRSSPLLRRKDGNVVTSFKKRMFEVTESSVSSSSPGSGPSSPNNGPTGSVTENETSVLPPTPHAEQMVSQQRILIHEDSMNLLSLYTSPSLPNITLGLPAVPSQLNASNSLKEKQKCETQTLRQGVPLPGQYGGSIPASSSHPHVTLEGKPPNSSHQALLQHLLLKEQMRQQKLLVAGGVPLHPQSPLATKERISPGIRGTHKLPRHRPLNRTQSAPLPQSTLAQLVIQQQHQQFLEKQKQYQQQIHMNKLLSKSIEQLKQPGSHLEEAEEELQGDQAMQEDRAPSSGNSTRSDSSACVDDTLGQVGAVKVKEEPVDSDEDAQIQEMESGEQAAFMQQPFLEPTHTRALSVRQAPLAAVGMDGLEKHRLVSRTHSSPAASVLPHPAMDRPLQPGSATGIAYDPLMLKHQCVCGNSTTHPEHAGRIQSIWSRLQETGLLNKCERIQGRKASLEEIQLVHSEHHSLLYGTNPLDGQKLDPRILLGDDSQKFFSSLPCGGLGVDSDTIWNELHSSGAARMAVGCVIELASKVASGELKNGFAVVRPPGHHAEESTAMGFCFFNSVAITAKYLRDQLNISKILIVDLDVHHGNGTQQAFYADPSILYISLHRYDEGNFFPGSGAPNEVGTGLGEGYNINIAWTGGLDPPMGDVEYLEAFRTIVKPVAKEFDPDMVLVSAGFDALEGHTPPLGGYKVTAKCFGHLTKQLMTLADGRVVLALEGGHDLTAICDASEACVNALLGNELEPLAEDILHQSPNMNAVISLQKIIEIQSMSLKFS
Histone deacetylase 1, sequence (Q13547 whole entry): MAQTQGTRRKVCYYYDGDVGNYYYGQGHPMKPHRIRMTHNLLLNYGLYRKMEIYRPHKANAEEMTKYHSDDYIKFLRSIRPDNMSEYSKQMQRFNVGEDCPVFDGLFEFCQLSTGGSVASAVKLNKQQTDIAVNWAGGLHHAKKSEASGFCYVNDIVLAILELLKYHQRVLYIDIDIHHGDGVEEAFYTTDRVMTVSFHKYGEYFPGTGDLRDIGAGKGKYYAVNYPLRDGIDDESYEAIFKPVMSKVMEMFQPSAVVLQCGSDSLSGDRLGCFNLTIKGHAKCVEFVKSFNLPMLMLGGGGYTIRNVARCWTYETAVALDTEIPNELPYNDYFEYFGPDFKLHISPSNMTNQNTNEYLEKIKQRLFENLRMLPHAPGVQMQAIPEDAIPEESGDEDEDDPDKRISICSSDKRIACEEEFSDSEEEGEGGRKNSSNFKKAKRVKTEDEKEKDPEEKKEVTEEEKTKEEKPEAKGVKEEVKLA
Histone deacetylase 3, sequence (O15379 whole entry): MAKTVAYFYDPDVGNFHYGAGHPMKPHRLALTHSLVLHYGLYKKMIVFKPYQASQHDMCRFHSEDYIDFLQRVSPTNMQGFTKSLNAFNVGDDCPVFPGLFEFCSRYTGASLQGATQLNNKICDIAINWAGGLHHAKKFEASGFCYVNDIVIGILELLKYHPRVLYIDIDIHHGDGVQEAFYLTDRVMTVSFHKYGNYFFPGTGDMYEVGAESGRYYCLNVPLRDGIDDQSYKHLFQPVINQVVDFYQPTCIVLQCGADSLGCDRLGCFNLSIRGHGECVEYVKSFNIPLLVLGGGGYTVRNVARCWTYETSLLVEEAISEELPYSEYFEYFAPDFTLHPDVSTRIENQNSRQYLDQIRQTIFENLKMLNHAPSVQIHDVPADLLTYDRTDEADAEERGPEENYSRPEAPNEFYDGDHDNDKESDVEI
Class 1 histone deacetylase (Homo sapiens), sequence (O15379 whole entry, looked up): as the sequence (O15379 whole entry) above
Class 1 histone deacetylase (Homo sapiens), sequence (Q13547 whole entry, looked up): as the sequence (Q13547 whole entry) above
Class 1 histone deacetylase (Homo sapiens), sequence (Q92769 whole entry, looked up): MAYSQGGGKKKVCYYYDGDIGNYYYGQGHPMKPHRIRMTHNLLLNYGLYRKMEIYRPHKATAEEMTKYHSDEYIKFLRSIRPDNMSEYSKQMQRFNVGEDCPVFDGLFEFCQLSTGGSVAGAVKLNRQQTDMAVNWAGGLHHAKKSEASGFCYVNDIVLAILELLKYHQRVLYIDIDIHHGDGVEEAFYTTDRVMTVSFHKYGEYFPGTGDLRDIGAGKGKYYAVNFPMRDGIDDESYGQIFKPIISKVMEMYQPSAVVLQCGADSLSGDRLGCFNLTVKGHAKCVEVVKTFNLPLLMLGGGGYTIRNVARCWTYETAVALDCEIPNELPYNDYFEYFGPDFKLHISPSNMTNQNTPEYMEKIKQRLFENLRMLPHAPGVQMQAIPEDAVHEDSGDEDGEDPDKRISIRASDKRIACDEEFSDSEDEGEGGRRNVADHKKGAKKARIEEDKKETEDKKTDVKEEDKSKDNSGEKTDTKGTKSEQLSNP
Class 1 histone deacetylase (Homo sapiens), sequence (Q9BY41 whole entry, looked up): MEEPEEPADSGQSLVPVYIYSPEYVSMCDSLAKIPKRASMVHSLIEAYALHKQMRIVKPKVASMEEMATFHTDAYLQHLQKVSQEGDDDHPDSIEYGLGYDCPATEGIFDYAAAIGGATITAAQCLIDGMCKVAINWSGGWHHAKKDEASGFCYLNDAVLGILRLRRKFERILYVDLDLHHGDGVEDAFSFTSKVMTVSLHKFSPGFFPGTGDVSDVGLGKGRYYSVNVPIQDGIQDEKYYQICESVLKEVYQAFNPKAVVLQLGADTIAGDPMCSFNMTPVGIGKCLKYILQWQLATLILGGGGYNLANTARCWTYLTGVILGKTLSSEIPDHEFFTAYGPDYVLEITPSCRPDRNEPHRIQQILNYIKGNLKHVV

By bioavailability is commonly meant dose-corrected exposure relative to a reference, in per cent. The GI50 is the concentration giving 50% growth inhibition. One may read the IC50 as the concentration that gives 50% inhibition. A high value points to a need for much substance. In general, inhibition refers to the change of the read-out against control, counted positive when it falls. By clearance is commonly meant the rate of elimination divided by the concentration. A lower clearance goes with inefficient removal. What is called Tmax is the time at which the peak concentration occurs. The Cmax is the peak of the concentration-time curve. As to `O=C(NO)c1ccc(CNC(=O)[C@H]2Cc3c([nH]c4ccccc34)[C@H](c3ccc(Cl)cc3)N2)cc1`, in [1], the bioavailability is 43.8%. Moreover, the GI50 in the data set on MCF7 turned out to be 874 nM; with IGROV-1, 1200 nM; in the data set with HL-60(TB), 706 nM; with HOP-92, 930 nM; in the data set with BT-549, 4930 nM; in the data set with UO-31, 2640 nM. The GI50 in the data set with LOX IMVI amounted to 1090 nM; with UACC-62 it was 538 nM; in the data set on HCT-15 it was 4260 nM; in the data set with SW-620 it was 687 nM; in the data set with COLO 205 it was 719 nM; in the data set on NCI-H23, 1330 nM. Besides, the values for the GI50 in the data set on CCRF-CEM, in the data set on DU-145 and with NCI-H226 were 617 nM, 1080 nM and 2270 nM, respectively. The IC50 against Histone deacetylase 3 is 103 nM; at Histone deacetylase 9, more than 50000 nM. Further, the inhibition entry in data set [2], in data set [5] and in data set [7] was “Active” in each case. In [3], the clearance came to 4.4 mL/min/kg. In addition, the Tmax in [4] amounted to 1.54 h. In [6], this molecule came in with a Cmax of 1020 nM.

Regarding `COc1ccc(CN2[C@@H](C(=O)NCc3ccc(C(=O)NO)cc3)Cc3c([nH]c4ccccc34)[C@@H]2C2CC2)cc1`, at Histone deacetylase 1, the inhibition was 83.4%. For the same molecule, the GI50 in the data set on MCF7 came out at 2330 nM; in the data set on IGROV-1 it was 2600 nM; with HL-60(TB) it was 2730 nM; with HOP-92 it was 2620 nM; in the data set with BT-549, 4990 nM; with UO-31 it was 3000 nM. Also, the GI50 in the data set on LOX IMVI came out at 2370 nM; in the data set on UACC-62, 1550 nM; with HCT-15 it was 3750 nM; in the data set on SW-620, 2260 nM; in the data set on COLO 205, 3470 nM; in the data set on NCI-H23 it was 2750 nM. Moreover, the figures for the GI50 with CCRF-CEM, in the data set on DU-145 and in the data set on NCI-H226 were 996 nM, 4380 nM and 3410 nM, respectively.
